Laboratory results as given in ChEMBL document CHEMBL5376003, “Structure-Activity Relationship of FL118 Platform Position 7 Versus Position 9-Derived Compounds and Their Mechanism of Action and Antitumor Activity” (J Med Chem, 2023).

Assays:
Assay type in all cases: functional, cell-based
HCT-116 [1] = assay: Growth inhibition of human HCT-116 cells incubated for 48 hrs by MTT reagent based ELISA reader analysis; details: HCT-116, 48 h
HepG2 = assay: Growth inhibition of human HepG2 cells incubated for 48 hrs by MTT reagent based ELISA reader analysis; details: HepG2, 48 h
MCF7 = assay: Growth inhibition of human MCF7 cells incubated for 48 hrs by MTT reagent based ELISA reader analysis; details: MCF7, 48 h
A549 = assay: Growth inhibition of human A549 cells incubated for 48 hrs by MTT reagent based ELISA reader analysis; details: A549, 48 h
HeLa = assay: Growth inhibition of human HeLa cells incubated for 48 hrs by MTT reagent based ELISA reader analysis
HCT-116 [2] = assay: Induction of apoptosis in human HCT-116 cells assessed as increase in intracellular ROS level incubated for 48 hrs by DCFH-DA staining based fluorescence microscopy

Structure (SMILES) | IC50 (HCT-116 [1]) | IC50 (HepG2) | IC50 (MCF7) | IC50 (A549) | IC50 (HeLa) | Activity (HCT-116 [2])
CC[C@@]1(O)C(=O)OCc2c1cc1n(c2=O)Cc2cc3c(-c4cc(OC)cc(OC)c4)c4c(cc3nc2-1)OCO4 | 22.3 nM | 28.1 nM | 29.7 nM | 434 nM | 32.8 nM | –
CC[C@@]1(O)C(=O)OCc2c1cc1n(c2=O)Cc2c-1nc1cc3c(cc1c2-c1cc(C)cc(C)c1)OCO3 | 64 nM | 45.4 nM | 86.8 nM | 36 nM | 33.6 nM | –
CC[C@@]1(O)C(=O)OCc2c1cc1n(c2=O)Cc2c-1nc1cc3c(cc1c2-c1ccc(C(C)C)cc1)OCO3 | 400 nM | 825 nM | 122 nM | 52 nM | 61.4 nM | –
CC[C@@]1(O)C(=O)OCc2c1cc1n(c2=O)Cc2cc3c(-c4ccc(C)c(C)c4)c4c(cc3nc2-1)OCO4 | 774 nM | > 1000 nM | > 1000 nM | 259 nM | > 1000 nM | –
CCCc1ccc(-c2c3c(nc4cc5c(cc24)OCO5)-c2cc4c(c(=O)n2C3)COC(=O)[C@]4(O)CC)cc1 | 118 nM | 827 nM | 64 nM | 51 nM | 59.4 nM | –
CC[C@@]1(O)C(=O)OCc2c1cc1n(c2=O)Cc2c-1nc1cc3c(cc1c2-c1ccc(C(C)(C)C)cc1)OCO3 | 83.2 nM | 140 nM | 160 nM | 64 nM | > 1000 nM | –
CCCCc1ccc(-c2c3c(cc4nc5c(cc24)Cn2c-5cc4c(c2=O)COC(=O)[C@]4(O)CC)OCO3)cc1 | 759 nM | > 1000 nM | > 1000 nM | 541 nM | > 1000 nM | –
CCCOc1ccc(-c2c3c(cc4nc5c(cc24)Cn2c-5cc4c(c2=O)COC(=O)[C@]4(O)CC)OCO3)cc1 | 564 nM | > 1000 nM | > 1000 nM | 1000 nM | 532 nM | –
CC[C@@]1(O)C(=O)OCc2c1cc1n(c2=O)Cc2c-1nc1cc3c(cc1c2-c1ccc(OC(C)C)cc1)OCO3 | < 6.4 nM | 160 nM | 52.8 nM | 142 nM | 506 nM | –
CC[C@@]1(O)C(=O)OCc2c1cc1n(c2=O)Cc2c-1nc1cc3c(cc1c2-c1ccc(C)c(C)c1)OCO3 | 22.3 nM | 64 nM | 45.3 nM | 22.1 nM | 364 nM | –
CC[C@@]1(O)C(=O)OCc2c1cc1n(c2=O)Cc2c-1nc1cc3c(cc1c2-c1ccc2c(c1)OCO2)OCO3 | 36.7 nM | 61.1 nM | 35.5 nM | 84.6 nM | 475 nM | –
CCOc1cccc(-c2c3c(cc4nc5c(cc24)Cn2c-5cc4c(c2=O)COC(=O)[C@]4(O)CC)OCO3)c1 | 256 nM | 199 nM | 156 nM | 111 nM | > 1000 nM | –
CC[C@@]1(O)C(=O)OCc2c1cc1n(c2=O)Cc2c-1nc1cc3c(cc1c2-c1cccc(OC)c1)OCO3 | 48.5 nM | 14.8 nM | 95.8 nM | 21.4 nM | 88.3 nM | –
CC[C@@]1(O)C(=O)OCc2c1cc1n(c2=O)Cc2c-1nc1cc3c(cc1c2-c1cccc(C)c1)OCO3 | 21.8 nM | 134 nM | 38.6 nM | 115 nM | 144 nM | –
CCSc1ccc(-c2c3c(cc4nc5c(cc24)Cn2c-5cc4c(c2=O)COC(=O)[C@]4(O)CC)OCO3)cc1 | 620 nM | 401 nM | > 1000 nM | 211 nM | > 1000 nM | –
CC[C@@]1(O)C(=O)OCc2c1cc1n(c2=O)Cc2c-1nc1cc3c(cc1c2-c1ccc([Si](C)(C)C)cc1)OCO3 | 56.3 nM | 74 nM | 863 nM | 321 nM | > 1000 nM | –
CCCCc1ccc(-c2c3c(nc4cc5c(cc24)OCO5)-c2cc4c(c(=O)n2C3)COC(=O)[C@]4(O)CC)cc1 | 513 nM | > 1000 nM | 60.5 nM | 54.9 nM | 115 nM | –
CCc1ccc(-c2c3c(cc4nc5c(cc24)Cn2c-5cc4c(c2=O)COC(=O)[C@]4(O)CC)OCO3)cc1 | 697 nM | > 1000 nM | > 1000 nM | 265 nM | > 1000 nM | –
CC[C@@]1(O)C(=O)OCc2c1cc1n(c2=O)Cc2cc3c(-c4ccc5c(c4)OCO5)c4c(cc3nc2-1)OCO4 | 59.2 nM | 350 nM | 32.6 nM | 111 nM | 32.5 nM | –
CC[C@@]1(O)C(=O)OCc2c1cc1n(c2=O)Cc2cc3c(-c4ccc(OC)cc4)c4c(cc3nc2-1)OCO4 | 162 nM | 527 nM | 161 nM | 163 nM | > 1000 nM | –
CC[C@@]1(O)C(=O)OCc2c1cc1n(c2=O)Cc2c-1nc1cc3c(cc1c2-c1cccc(OC(C)C)c1)OCO3 | 793 nM | 1000 nM | 64.1 nM | 400 nM | 143 nM | –

Structure (SMILES) | IC50 (HCT-116 [1]) | IC50 (HepG2) | IC50 (MCF7) | IC50 (A549) | IC50 (HeLa) | Activity (HCT-116 [2])
CC[C@@]1(O)C(=O)OCc2c1cc1n(c2=O)Cc2c-1nc1cc3c(cc1c2-c1cc(OC)c(OC)c(OC)c1)OCO3 | 39.6 nM | 738 nM | 101 nM | 140 nM | 200 nM | –
CCCOc1ccc(-c2c3c(nc4cc5c(cc24)OCO5)-c2cc4c(c(=O)n2C3)COC(=O)[C@]4(O)CC)cc1 | 562 nM | 993 nM | 53 nM | 225 nM | > 1000 nM | –
CC[C@@]1(O)C(=O)OCc2c1cc1n(c2=O)Cc2cc3c(-c4ccc(SC)cc4)c4c(cc3nc2-1)OCO4 | 582 nM | 303 nM | 158 nM | 220 nM | 161 nM | –
CC[C@@]1(O)C(=O)OCc2c1cc1n(c2=O)Cc2cc3c(-c4cccc(OC(C)C)c4)c4c(cc3nc2-1)OCO4 | 183 nM | 161 nM | 149 nM | 149 nM | 161 nM | –
CCCCOc1ccc(-c2c3c(nc4cc5c(cc24)OCO5)-c2cc4c(c(=O)n2C3)COC(=O)[C@]4(O)CC)cc1 | 235 nM | > 1000 nM | > 1000 nM | > 1000 nM | > 1000 nM | –
CCSc1ccc(-c2c3c(nc4cc5c(cc24)OCO5)-c2cc4c(c(=O)n2C3)COC(=O)[C@]4(O)CC)cc1 | 91.3 nM | 300 nM | 72.5 nM | 29.1 nM | 95.8 nM | –
CC[C@@]1(O)C(=O)OCc2c1cc1n(c2=O)Cc2cc3c(-c4cc(C)cc(C)c4)c4c(cc3nc2-1)OCO4 | 709 nM | 292 nM | 160 nM | 107 nM | 115 nM | –
CC[C@@]1(O)C(=O)OCc2c1cc1n(c2=O)Cc2cc3c(-c4ccc(C(F)(F)F)cc4)c4c(cc3nc2-1)OCO4 | 934 nM | > 1000 nM | – | 803 nM | > 1000 nM | Dose-Dependent Effect
CCOc1ccc(-c2c3c(nc4cc5c(cc24)OCO5)-c2cc4c(c(=O)n2C3)COC(=O)[C@]4(O)CC)cc1 | 226 nM | > 1000 nM | 64 nM | 61.2 nM | 63.2 nM | –
CCOc1cccc(-c2c3c(nc4cc5c(cc24)OCO5)-c2cc4c(c(=O)n2C3)COC(=O)[C@]4(O)CC)c1 | 55.9 nM | 280 nM | 47.8 nM | 29.4 nM | 52.2 nM | –
CC[C@@]1(O)C(=O)OCc2c1cc1n(c2=O)Cc2cc3c(-c4ccc(C(C)C)cc4)c4c(cc3nc2-1)OCO4 | > 1000 nM | > 1000 nM | 800 nM | 765 nM | > 1000 nM | –
CC[C@@]1(O)C(=O)OCc2c1cc1n(c2=O)Cc2c-1nc1cc3c(cc1c2-c1cccc(SC)c1)OCO3 | 46.1 nM | 78.6 nM | 34.6 nM | 132 nM | 125 nM | –
CC[C@@]1(O)C(=O)OCc2c1cc1n(c2=O)Cc2cc3c(-c4ccc(C(C)(C)C)cc4)c4c(cc3nc2-1)OCO4 | > 1000 nM | > 1000 nM | > 1000 nM | 910 nM | 674 nM | –
CC[C@@]1(O)C(=O)OCc2c1cc1n(c2=O)Cc2cc3c(-c4cccc(SC)c4)c4c(cc3nc2-1)OCO4 | 134 nM | 190 nM | 98.5 nM | 133 nM | 32.3 nM | –
CCOc1ccc(-c2c3c(cc4nc5c(cc24)Cn2c-5cc4c(c2=O)COC(=O)[C@]4(O)CC)OCO3)cc1 | 176 nM | > 1000 nM | > 1000 nM | 296 nM | > 1000 nM | –
CC[C@@]1(O)C(=O)OCc2c1cc1n(c2=O)Cc2cc3c(-c4cc(OC)c(OC)c(OC)c4)c4c(cc3nc2-1)OCO4 | 136 nM | 952 nM | 757 nM | 1000 nM | 140 nM | –
CCCc1ccc(-c2c3c(cc4nc5c(cc24)Cn2c-5cc4c(c2=O)COC(=O)[C@]4(O)CC)OCO3)cc1 | 951 nM | > 1000 nM | > 1000 nM | 423 nM | > 1000 nM | –
CCCCOc1ccc(-c2c3c(cc4nc5c(cc24)Cn2c-5cc4c(c2=O)COC(=O)[C@]4(O)CC)OCO3)cc1 | 782 nM | 569 nM | 344 nM | 616 nM | 593 nM | –
CC[C@@]1(O)C(=O)OCc2c1cc1n(c2=O)Cc2c-1nc1cc3c(cc1c2-c1ccc(SC)cc1)OCO3 | 61.8 nM | 51.9 nM | 53.4 nM | 27.3 nM | 58.7 nM | –
CC[C@@]1(O)C(=O)OCc2c1cc1n(c2=O)Cc2cc3c(-c4cccc(OC)c4)c4c(cc3nc2-1)OCO4 | > 1000 nM | > 1000 nM | > 1000 nM | 990 nM | > 1000 nM | –
